Source: ChEMBL document CHEMBL1133959, “Syntheses and preliminary pharmacological evaluation of the two epimers of the 5-F2t-isoprostane” (2001)
Activity calls are given as the source filed them. The calls are words filed in the database; no cut-off is given here.

Assays:
Type in all cases: functional
Rattus norvegicus [1] = species on record: Rattus norvegicus; experiment: Effect of compound on rat thoracic aorta constriction in rat at 10e-5 M concentration; No effect
Rattus norvegicus [2] = species on record: Rattus norvegicus; experiment: Compound was tested for maximal contraction of rat thoracic aorta
Rattus norvegicus [3] = species on record: Rattus norvegicus; experiment: Effect of compound on rat thoracic aorta constriction in rat

Row | SMILES | pD2 (Rattus norvegicus [1]) | Emax (Rattus norvegicus [2]) | pD2 (Rattus norvegicus [3])
1 | CCCCC/C=C\C[C@@H]1[C@H](/C=C/[C@@H](O)CCCC(=O)OC)[C@@H](O)C[C@H]1O | inactive |  | 
2 | CCCCC/C=C\C[C@@H]1[C@H](/C=C/[C@H](O)CCCC(=O)OC)[C@@H](O)C[C@H]1O | inactive |  | 
3 | CCCCC[C@H](O)/C=C/[C@H]1C2CC(CO2)[C@@H]1C/C=C\CCCC(=O)O (some centres undefined) |  | 189% | 7.8
